Values quoted from earlier work in patent US20260335223A1, “Topical Copolymer Formulations for Hydrophobic Drug Delivery” (1376683 B.C. LTD, priority 2023, published 2026).

Columns and labels:
[1] = background statement; cited from earlier work
[2] = diblock copolymer micelles, background; cited from earlier work

CC[C@@]1(O)C(=O)OCc2c1cc1n(c2=O)Cc2cc3ccccc3nc2-1 [camptothecin]
Water solubility [1]: 1 µg/mL | Formation of drug-loaded micelles [2]: do not form drug-loaded micelles
